{
  "source": "patent EP4000617A1",
  "about": "“COMPOSITIONS FOR USE IN THE TREATMENT OF LEUKAEMIA” (Fundació Institut de Recerca Contra la Leucèmia Josep …, priority 2020, dated 2022)",
  "tested_on": "Luc-positive MonoMac-1 AML cells",
  "assay": "Luc-positive MonoMac-1 AML xenograft in NSG mice, bioluminescence imaging",
  "type": "in vivo, NOD-scid IL2Rgamma null (NSG) mice",
  "settings": "10 mg/kg intraperitoneally on days 3, 4, 5, 6, 7, 10 and 11, at day 12, in comparison to the control",
  "data": [
    {"substance": "N,N-dimethyl 3-(10H-benz[b]indeno[2,1-d]thien-10-ylidene) -1-Propanamine [compound 87]", "values": [
      {"measurement": "amount of AML cells", "result": "remarkable reduction"}
    ]}
  ]
}
